From patent US20240050574A1, “IONIZABLE LIPIDS” (eTheRNA immunotherapies NV, priority 2020, published 2024)

Tests used:
[1] = LNP size and polydispersity index by Dynamic Light Scattering (Malvern Zetasizer); format: physicochemical
[2] = mRNA encapsulation efficiency by Ribogreen RNA assay; format: physicochemical; conditions: for % encap: eGFP mRNA; for E.E. (encapsulation efficiency): N/P 10
Protocol: Lipid based nanoparticles are produced by microfluidic mixing of an mRNA solution in sodium acetate buffer (100 mM, pH4) and lipid solution in a 2:1 volume ratio at a speed of 9 mL/min using the NanoAssemblr Benchtop (Precision Nanosystems). The lipid solution contained a mixture of the ionizable lipid of interest, DSPC, DOPC or DOPE (Avanti), Cholesterol (Sigma) and DMG-PEG2000 (Sunbright GM-020, NOF corporation. The 4 lipids were mixed at 6 different molar ratios. LNPs were dialyzed against TBS (10000 times more TBS volume than LNP volume) using slide-a-lyzer dialysis cassettes (20K MWCO, 3 mL, ThermoFisher). Size, polydispersity and zeta potential were measured with a Zetasizer Nano (Malvern). mRNA encapsulation was measured by standard Ribogreen RNA assay (Invitrogen). […]
(§1) LNP formulations were prepared using a modified procedure of a method previously described for siRNA LNP synthesis. All formulations were prepared in a sterile manner with a N/P ratio of 10. All lipid components were dissolved in ethanol at molar ratios of 50:10:38.5:1.5 mol % (ionizable lipid/DSPC/Cholesterol/DMG-PEG2000). DSPC, Cholesterol and DMG-PEG2000 were purchased from Avanti Polar Lipids (Alabaster, Alabama, USA), while the Ionizable lipids are synthesized in-house. The final lipid concentration in ethanol was fixed at 10 mg/mL. E7 mRNA was dissolved in 100 mM acetate buffer (Sigma Aldrich, Saint-Louis, Missouri, USA) pH 4. The ethanol and aqueous phase were combined using a microfluidic mixer (NanoAssemblr® BenchTop (Precision Nanosystems, Vancouver, BC) in a 2:1 (aqueous:ethanol) ratio. Formulations were dialysed afterwards against 1× Sterile TBS pH 7.4 (Sigma Aldrich, Saint-Louis, Missouri, USA) using Slide-A-Lyzer® dialysis cassettes with a MWCO of 20.000 Da (Thermo Scientific, Massachusetts, USA) for 18 hours. Afterwards, the purified formulations were concentrated using Amicon ultra centrifugal filters (EMD Millipore, Massachusetts, USA). Finally, the exact concentration and E.E. % was determined through a Ribogreen Assay prior to final dilution with TBS (100 μg/mL E7 mRNA per formulation. All formulations were characterized for size and PDI using Dynamic Light Scattering Zetasizer Nano-ZS (Malvern Pananlytical Ltd., Malvern, UK) and stored afterwards at 4° C. The physico-chemical characteristics of each formulation can be found in Table 5.

[3] = LNP size and polydispersity index by Dynamic Light Scattering (Malvern Zetasizer); format: physicochemical; conditions: N/P 10
Protocol: Lipid based nanoparticles are produced by microfluidic mixing of an mRNA solution in sodium acetate buffer (100 mM, pH4) and lipid solution in a 2:1 volume ratio at a speed of 9 mL/min using the NanoAssemblr Benchtop (Precision Nanosystems). The lipid solution contained a mixture of the ionizable lipid of interest, DSPC, DOPC or DOPE (Avanti), Cholesterol (Sigma) and DMG-PEG2000 (Sunbright GM-020, NOF corporation. The 4 lipids were mixed at 6 different molar ratios. LNPs were dialyzed against TBS (10000 times more TBS volume than LNP volume) using slide-a-lyzer dialysis cassettes (20K MWCO, 3 mL, ThermoFisher). Size, polydispersity and zeta potential were measured with a Zetasizer Nano (Malvern). mRNA encapsulation was measured by standard Ribogreen RNA assay (Invitrogen).
Size and Poly Dispersity Index were assessed by Dynamic Light Scattering (DLS) on a Malvern Zetasizer. MC-3 is the ionizable lipid used in Onpattro and is considered the state-of-the art.
as §1

[4] = Body weight after intratumoral LNP administration (CT26 model); format: in vivo, Balb/c mice; conditions: after intratumoral administration of 10 μg mRNA LNP
Protocol: Fluc mRNA expression in tumor and liver was assessed at 6 an 24 hours post injection. By injecting mice peritoneally with D-luciferin (Promega), bioluminescence can be measured through in vivo imaging (IVIS Spectrum System). Bioluminescence is generated through an oxidation reaction which occurs between the enzyme luciferase derived from the firefly mRNA encapsulated in the LNP and its substrate D-luciferin. The Living Image Software (PerkinElmer) was used to specify tumor and liver ‘region of interests (ROIs) after which the average radiance (p/s/cm^2/sr) was calculated within these ROIs. To monitor tolerability of different LNP types used, bodyweight at 6 and 24 hours post injection was compared to baseline bodyweight at day of randomization.
Balb/c mice were subcutaneously inoculated with CT26 tumor cells. When tumors reached a mean volume of 50-100 mm^3, tumors were injected with the respective mRNA LNPs (10 μg mRNA; 20 μl volume; TBS buffer) or with control buffer.

[5] = Body weight after intratumoral LNP administration (B16F10 model); format: in vivo, C57/BL6 mice; conditions: B16F10 model (Example 2.5); after intratumoral administration of 10 μg mRNA LNP
[6] = Table 3, LNP ionizable lipid/phospholipid/cholesterol/DMG-PEG2000 about 50/10/38.5/1.5, DOPE, except MC-3 with DSPC, eGFP mRNA
[7] = Table 3, LNP ionizable lipid/phospholipid/cholesterol/DMG-PEG2000 about 50/10/38.5/1.5, DOPE, except MC-3 with DSPC, eGFP mRNA, in nm (unit assumed)
[8] = Table 3, LNP ionizable lipid/phospholipid/cholesterol/DMG-PEG2000 about 50/10/38.5/1.5, DOPE, except MC-3 with DSPC
[9] = Table 2, LNP ionizable lipid/DOPE/cholesterol/DMG-PEG2000 about 50/10/38.5/1.5, eGFP mRNA
[10] = Table 2, LNP ionizable lipid/DOPE/cholesterol/DMG-PEG2000 about 50/10/38.5/1.5, eGFP mRNA, mRNA/ionizable lipid molar ratio 1/10, in nm (unit assumed)
[11] = Table 2, LNP ionizable lipid/DOPE/cholesterol/DMG-PEG2000 about 50/10/38.5/1.5
[12] = Table 5, ionizable lipid/DSPC/Chol/DMG-PEG2000 50/10/38.5/1.5 mol %, E7 mRNA
[13] = Table 6 (Example 4, HA mRNA), ionizable lipid/DSPC/Chol/DMG-PEG2000 50/10/38.5/1.5 mol %, N/P 10
[14] = Table 6 (Example 4, HA mRNA), ionizable lipid/DSPC/Chol/DMG-PEG2000 50/10/38.5/1.5 mol %
[15] = Table 7, Ratio 1: 50/10/38.5/1.5 mol % ionizable lipid/DSPC (SS-EC: DOPE)/Chol/DMG-PEG2000

Row | Structure (SMILES) | PDI [1, 6] | size [1, 7] | % encap [2, 8] | PDI [1, 9] | size [1, 10] | % encap [2, 11] | also measured
1 | CCCCCCCC/C=C\CCCCCCCC(=O)OCC(CNC(=O)OCCOC(C)(C)OCCOC(=O)NCCCN1CCCCC1CC)OC(=O)CCCCCCC/C=C\CCCCCCCC (centres unmarked) [K-Ac6e-DOg] | 0.268 | 75.8 | 95% | – | – | – | –
2 | CCCCCCCCCCCCCCCCCCN(CCCCCCCCCCCCCCCCCC)C(=O)OCCSSCCOC(=O)NCCN1CCCCCC1 [S-Ac7-Dsa] | 0.158 | 89.44 | 93% | 0.188 | 71.05 | 99% | –
3 | CCCCCCCCCCCCN(CCCCCCCCCCCC)C(=O)OCCSSCCOC(=O)NCCN(C(C)C)C(C)C [S-Adip-Dda] | – | – | – | 0.197 | 86.95 | 98% | –
4 | CCCCCCCC/C=C\CCCCCCCC(=O)OCC(CNC(=O)OCCOC(C)(C)OCCOC(=O)NCCN(C)C)OC(=O)CCCCCCC/C=C\CCCCCCCC (centres unmarked) [K-Adm-DOg] | 0.157 | 91.9 | 94% | – | – | – | –
5 | CCCCCCCCCCCCN(CCCCCCCCCCCC)C(=O)OCCSSCCOC(=O)NCCN(C)C [S-Adm-Dda] | – | – | – | 0.44 | 115.3 | 100% | –
6 | CCCCCCCC/C=C\CCCCCCCC(=O)OCC(CNC(=O)OCCOCCOC(=O)NCCCN1CCCCC1CC)OC(=O)CCCCCCC/C=C\CCCCCCCC (centres unmarked) [E-Ac6e-DOg] | 0.241 | 67.3 | 100% | – | – | – | –
7 | CCCCCCCCCCCCCCCCCCN(CCCCCCCCCCCCCCCCCC)C(=O)OCCSSCCOC(=O)NCCN(C)C [S-Adm-Dsa] | 0.137 | 91.15 | 100% | 0.042 | 82.11 | 98% | –
8 | CCCCCCCC/C=C\CCCCCCCC(=O)OCC(CNC(=O)OCCOCCOC(=O)NCCN(C)C)OC(=O)CCCCCCC/C=C\CCCCCCCC (centres unmarked) [E-Adm-Dog] | 0.217 | 59.56 | 100% | – | – | – | –
9 | CCCCCCCCCCCCCCCCCCN(CCCCCCCCCCCCCCCCCC)C(=O)OCCSSCCOC(=O)NCCN(C(C)C)C(C)C [S-Adip-Dsa] | – | – | – | 0.153 | 70.9 | 101% | –
10 | CCCCCCCC/C=C\CCCCCCCC(=O)OCC(CNC(=O)OCCOCCOC(=O)NCCN1CCCCCC1)OC(=O)CCCCCCC/C=C\CCCCCCCC (centres unmarked) [E-Ac7-Dog] | 0.258 | 93.05 | 100% | – | – | – | –
11 | CCCCCCCC/C=C\CCCCCCCC(=O)OCC(CNC(=O)OCCSSCCOC(=O)NCCCN1CCCCC1CC)OC(=O)CCCCCCC/C=C\CCCCCCCC (centres unmarked) [S-Ac6e-DOg] | 0.311 | 63.86 | 95% | – | – | – | PDI [3, 12]: 0.266; size [3, 12]: 178.1 nm; E.E. (encapsulation efficiency) [2, 12]: 92%
12 | CCCCCCCCC(CCCCCC)C(=O)OCCN(CCOC(=O)C(CCCCCC)CCCCCCCC)C(=O)OCCSSCCOC(=O)NCCN(C)C (centres unmarked) [S-Adm-DHDa] | – | – | – | – | – | – | PDI [1, 13]: 0.184; size [1, 13]: 79.075 nm; E.E. (encapsulation efficiency) [2, 14]: 98%
13 | CCCCC/C=C\C/C=C\CCCCCCCCC(CCCCCCCC/C=C\C/C=C\CCCCC)OC(=O)CCCN(C)C [MC3, reference compound] | 0.08 | 73.33 | 94% | 0.103 | 73.14 | 100% | body weight [4]: significant body weight loss; PDI [3, 12]: 0.106; size [3, 12]: 67.57 nm; PDI [3, 15]: 0.117; size [3, 15]: 74 nm; body weight [5]: significant body weight loss; E.E. (encapsulation efficiency) [2, 12]: 99%; E.E. (encapsulation efficiency) [2, 15]: 96%
14 | CCCCCCCC/C=C\CCCCCCCC(=O)OCC(CNC(=O)OCCOC(C)(C)OCCOC(=O)NCCN1CCCCCC1)OC(=O)CCCCCCC/C=C\CCCCCCCC (centres unmarked) [K-Ac7-DOg] | 0.108 | 62.26 | 93% | – | – | – | PDI [3, 12]: 0.130; size [3, 12]: 164.8 nm; E.E. (encapsulation efficiency) [2, 12]: 49%
15 | CCCCCCCC/C=C\CCCCCCCC(=O)OCC(CNC(=O)OCCSSCCOC(=O)NCCN(C)C)OC(=O)CCCCCCC/C=C\CCCCCCCC (centres unmarked) [S-Adm-DOg] | 0.3 | 68.08 | 98% | – | – | – | –
16 | CCCCCCCCC(CCCCCC)C(=O)OCCN(CCOC(=O)C(CCCCCC)CCCCCCCC)C(=O)OCCSSCCOC(=O)NCCN1CCN(C)CC1 (centres unmarked) [S-Amp-DHDa] | – | – | – | – | – | – | PDI [1, 13]: 0.1515; size [1, 13]: 106.3 nm; E.E. (encapsulation efficiency) [2, 14]: 99%
17 | CCCCCCCCCCCCN(CCCCCCCCCCCC)C(=O)OCCOC(C)(C)OCCOC(=O)NCCN(C)C [K-Adm-Dda] | – | – | – | 0.197 | 65.56 | 100% | –
18 | CCCCCCCCCCCCN(CCCCCCCCCCCC)C(=O)OCCSSCCOC(=O)NCCN1CCCCCC1 [S-Ac7-Dda] | – | – | – | 0.223 | 74.28 | 95% | –
19 | CCCCCCCCCCCCN(CCCCCCCCCCCC)C(=O)OCCOC(C)(C)OCCOC(=O)NCCN(C(C)C)C(C)C [K-Adip-Dda] | – | – | – | 0.292 | 78.59 | 97% | –
